Assay results published in patent US8716326B2, “Isoindolinone derivatives, preparation method thereof and a pharmaceutical composition comprising same” (Korea Research Institute of Chemical Technology, priority 2009, dated 2014).

Test system: Runx2
Assay: Runx2 activity, 6xOSE2-Luc luciferase reporter in transfected C2C12 cells
Type: cell-based, Mouse
Details: 24 hrs; for fold induction at 2.5 µM / fold induction at 5 µM / fold induction at 10 µM / fold induction at 20 µM: Mus musculus, read-out: luciferase activity relative to control set as 1
Protocol: Mouse premyoblast cell (C2C12 cell) was transfected using receptor vector 6xOSE2-Luc in order to investigate the activity of the amide compound of the present invention on Runx2.
Specifically, the receptor vector 6xOSE2-Luc was prepared by inserting an artificial promoter linked by six tandem copies of the OSE2 (osteoblast specific element-2) into vector pGL3 (Promega; Madison, Wis., U.S.A.), and then, cloned into the C2C12 cell to be transfected (Kim et al., Journal of Cellular Biochemistry, 91: 1239-1247, 2004). The OSE2 is the binding site of Runx2 in the promoter of osteocalcin which is a bone marker.
C2C12 cells (5,000 cells/well) were plated onto 96-well plates using 10% FBS (fetal bovine serum; Hyclone)-containing DMEM (Dulbecco's Modified Eagle's Medium), the medium was replaced with 5% FBS-containing DMEM after 24 hrs, and treated with each of the amide compounds obtained in Examples 1 to 94 at various concentrations of 2.5 μM, 5.0 μM, 10 μM, and 20 μM. As a control, dimethyl sulfoxide (DMSO) vehicle was applied to the cell in an amount same as that of the amide compound. After 24 hrs, the luciferase activity in the cell lysate was measured by using Dual-Luciferase Reporter Assay System (Promega). The luciferase activity of the amide compound of the present invention was calculated as a value relative to that observed for the control which was set as 1.

Structure (SMILES) | fold induction at 2.5 µM (2.5 μM) | fold induction at 5 µM (5.0 μM) | fold induction at 10 µM (10 μM) | fold induction at 20 µM (20 μM) | luciferase activity relative to control set as 1 (2.5 μM) | luciferase activity relative to control set as 1 (5.0 μM) | luciferase activity relative to control set as 1 (10 μM) | luciferase activity relative to control set as 1 (20 μM)
Nc1ccccc1NC(=O)c1ccc(CN2Cc3cc(-c4ccccc4)ccc3C2=O)cc1 [Example 57, N-(2-aminophenyl)-4-((1-oxo-5-phenylisoindolin-2-yl)methyl)benzamide] | 7.3 | 8.9 | 10.9 | 10.7 | – | – | – | –
COc1cc2c(c(-c3cc(C)cc(C)c3)c1OC)CN(Cc1ccc(C(=O)Nc3ccccc3N)cc1)C2=O [Example 3, N-(2-aminophenyl)-4-((5,6-dimethoxy-4-(3,5-dimethylphenyl)-1-oxoisoindolon-2-yl)methyl)benzamide] | – | – | – | – | 25.2 fold | 25.7 fold | 22.7 fold | 18.7 fold
Nc1ccccc1NC(=O)CCCCCN1Cc2c(cccc2-c2cccnc2)C1=O [Example 38, N-(2-aminophenyl)-6-(1-oxo-4-(pyridin-3-yl)isoindolin-2-yl)hexanamide] | 3 | 8.2 | 23 | 43.3 | – | – | – | –
O=C(CCCCCN1Cc2c(cccc2-c2cc(F)cc(F)c2)C1=O)NO [Example 42, 6-(4-(3,5-difluorophenyl)-1-oxoisoindolin-2-yl)-N-hydroxyhexanamide] | 3.1 | 10.8 | 22.3 | 17.9 | – | – | – | –
Nc1ccccc1NC(=O)c1ccc(CN2Cc3c(cccc3-c3ccc(F)cc3)C2=O)cc1 [Example 30, N-(2-aminophenyl)-4-((4-(4-fluorophenyl)-1-oxoisoindolin-2-yl)methyl)benzamide] | 13.5 | 20.5 | 28.8 | 30.4 | – | – | – | –
Cc1cc(C)cc(-c2cccc3c2CN(Cc2ccc(C(=O)Nc4ccccc4N)cc2)C3=O)c1 [Example 12, N-(2-aminophenyl)-4-((4-(3,5-dimethylphenyl)-1-oxoisoindolin-2-yl)methyl)benzamide] | 5.5 | 9 | 12.2 | 10.4 | – | – | – | –
Nc1ccccc1NC(=O)c1ccc(CN2Cc3c(cccc3-c3cccnc3)C2=O)cc1 [Example 14, N-(2-aminophenyl)-4-((1-oxo-4-(pyridin-3-yl)isoindolin-2-yl)methyl)benzamide] | 12 | 15.7 | 15.4 | 16.9 | – | – | – | –
CC(C)(C)c1ccc(-c2cccc3c2CN(Cc2ccc(C(=O)Nc4ccccc4N)cc2)C3=O)cc1 [Example 28, 4-((4-(4-tert-butylphenyl)-1-oxoisoindolin-2-yl)methyl)-N-(2-aminophenyl)benzamide] | 4.6 | 7.7 | 14.3 | 23.7 | – | – | – | –
Nc1ccccc1NC(=O)c1ccc(CN2Cc3c(cccc3-c3ccc(C(F)(F)F)cc3)C2=O)cc1 [Example 13, N-(2-aminophenyl)-4-((4-(4-(trifluoromethyl)phenyl)-1-oxoisoindolin-2-yl)methyl)benzamide] | 7.9 | 8 | 9.3 | 7.2 | – | – | – | –
Cc1c(Br)cccc1C(=O)NCCCCCC(=O)Nc1ccccc1N [Example 80, N-(5-(2-aminophenylcarbamoyl)pentyl)-3-bromo-2-methylbenzamide] | 0.9 | 1.8 | 2.7 | 5.4 | – | – | – | –
COc1cc2c(c(-c3cccnc3)c1OC)CN(Cc1ccc(C(=O)Nc3ccccc3N)cc1)C2=O [Example 4, N-(2-aminophenyl)-4-((5,6-dimethoxy-1-oxo-4-(pyridin-3-yl)isoindolin-2-yl)methyl)benzamide] | 37 | 42.2 | 36.6 | 36.7 | – | – | – | –
O=C(CCCCCN1Cc2cc(-c3ccccc3)ccc2C1=O)NO [Example 49, N-hydroxy-6-(1-oxo-5-phenylisoindolin-2-yl)hexanamide] | 4.8 | 10.6 | 28.1 | 26.5 | – | – | – | –
Cc1c(C(=O)NCc2ccc(C(=O)Nc3ccccc3N)cc2)cccc1-c1cccnc1 [Example 71, N-(2-aminophenyl)-4-((2-methyl-3-(3-pyridinyl)benzamido)methyl)benzamide] | 18.7 | 34.8 | 36.5 | 32.7 | – | – | – | –
Cc1cc(C(=O)NCCCCCC(=O)Nc2ccccc2N)ccc1-c1cccnc1 [Example 88, N-(5-(2-aminophenylcarbamoyl)pentyl)-3-methyl-4-(3-pyridinyl)-benzamide] | 6 | 16.8 | 28.1 | 41.2 | – | – | – | –
COc1cc2c(c(-c3ccc(C(F)(F)F)cc3)c1OC)CN(Cc1ccc(C(=O)Nc3ccccc3N)cc1)C2=O [Example 6, N-(2-aminophenyl)-4-((4-(4-(trifluoromethyl)phenyl)-5,6-dimethoxy-1-oxoisoindolin-2-yl)methyl)benzamide] | 14.2 | 18.3 | 17.2 | 9.3 | – | – | – | –
Nc1ccccc1NC(=O)c1ccc(CN2Cc3c(cccc3-c3ccc4ccccc4c3)C2=O)cc1 [Example 21, N-(2-aminophenyl)-4-((4-(naphthalen-2-yl)-1-oxoisoindolin-2-yl)methyl)benzamide] | 6.4 | 8.7 | 11.6 | 11.7 | – | – | – | –
COc1cc(C(=O)NCc2ccc(C(=O)Nc3ccccc3N)cc2)c(C)c(-c2cccnc2)c1OC [Example 76, N-(2-aminophenyl)-4-((2-methyl-3-(3-pyridinyl)-4,5-dimethoxy-benzamido)methyl)benzamide] | 4.5 | 8.5 | 20.8 | 32.9 | – | – | – | –
Nc1ccccc1NC(=O)c1ccc(CN2Cc3cc(Br)ccc3C2=O)cc1 [Example 56, N-(2-aminophenyl)-4-((5-bromo-1-oxoisoindolin-2-yl)methyl)benzamide] | 1.1 | 1.1 | 1.1 | 1.1 | – | – | – | –
Nc1ccccc1NC(=O)c1ccc(CN2Cc3cc(-c4ccc5c(c4)OCO5)ccc3C2=O)cc1 [Example 66, N-(2-aminophenyl)-4-((5-(benzo[d][1,3]dioxol-6-yl)-1-oxoisoindolin-2-yl)methyl)benzamide] | 14.2 | 9.4 | 7.2 | 7.2 | – | – | – | –
COc1cc2c(c(-c3cccnc3)c1OC)CN(Cc1ccc(C(=O)Nc3cc(-c4cccs4)ccc3N)cc1)C2=O [Example 48, N-(2-amino-5-(thiophen-2-yl)phenyl)-4-((5,6-dimethoxy-1-oxo-4-(pyridin-3-yl)isoindolin-2-yl)methyl)benzamide] | 3.7 | 7.2 | 11.4 | 14.3 | – | – | – | –
COc1cc2c(c(-c3cc(C)cc(C)c3)c1OC)CN(CCCCCC(=O)Nc1ccccc1N)C2=O [Example 32, N-(2-aminophenyl)-6-(5,6-dimethoxy-4-(3,5-dimethylphenyl)-1-oxoisoindolin-2-yl)hexanamide] | 4.4 | 9.2 | 18.5 | 23.8 | – | – | – | –
Nc1ccccc1NC(=O)c1ccc(CN2Cc3cc(-c4cccnc4)ccc3C2=O)cc1 [Example 61, N-(2-aminophenyl)-4-((1-oxo-5-(pyridin-3-yl)isoindolin-2-yl)methyl)benzamide] | 9.6 | 10.6 | 14.2 | 15.6 | – | – | – | –
Nc1ccccc1NC(=O)c1ccc(CN2Cc3c(cccc3-c3ccc(-c4ccccc4)cc3)C2=O)cc1 [Example 25, N-(2-aminophenyl)-4-[1-oxo-4-(4-phenylphenyl)-2,3-dihydro-1H-isoindol-2-yl]methylbenzamide] | 6.8 | 11.3 | 17.9 | 19.7 | – | – | – | –
Nc1ccccc1NC(=O)c1ccc(CN2Cc3c(Br)cccc3C2=O)cc1 [Example 9, N-(2-aminophenyl)-4-((4-bromo-1-oxoisoindolin-2-yl)methyl)benzamide] | 12.4 | 11.3 | 9.7 | 9.4 | – | – | – | –
Nc1ccccc1NC(=O)c1ccc(CN2Cc3cc(-c4cncnc4)ccc3C2=O)cc1 [Example 58, N-(2-aminophenyl)-4-((1-oxo-5-(pyrimidin-5-yl)isoindolin-2-yl)methyl)benzamide] | 11.7 | 17.1 | 21.6 | 21.6 | – | – | – | –
